{"source": "patent US6271233A", "about": "“Method for treating ocular neovascular diseases” (priority 1999, dated 2001)", "key": {"VEGF receptors": {"tested_on": "VEGF receptors", "assay": "Cellular autophosphorylation assay, transfected Chinese hamster ovary cells: VEGF receptors", "assay_type": "cell-based", "procedure": "(§1) In vivo activity requires drugs to enter cells and therefore agents are tested in cellular autophosphorylation assays, using Chinese hamster ovary cells transfected with one of several RTK genes."}, "PDGF receptors": {"tested_on": "PDGF receptors", "assay": "Cellular autophosphorylation assay, transfected Chinese hamster ovary cells: PDGF receptors", "assay_type": "cell-based", "procedure": "as §1"}, "[1]": {"tested_on": "other RTKs including VEGF receptors", "assay": "Kinase assay, other RTKs including VEGF receptors", "assay_type": "biochemical", "settings": "in words"}, "Flt-1": {"target": "T1, Flt-1 (Homo sapiens, UniProt P17948)", "T1 construct": "kinase domains of human VEGF receptors 1 and 2", "T1 sequence (P17948 827-1158 limits assumed)": "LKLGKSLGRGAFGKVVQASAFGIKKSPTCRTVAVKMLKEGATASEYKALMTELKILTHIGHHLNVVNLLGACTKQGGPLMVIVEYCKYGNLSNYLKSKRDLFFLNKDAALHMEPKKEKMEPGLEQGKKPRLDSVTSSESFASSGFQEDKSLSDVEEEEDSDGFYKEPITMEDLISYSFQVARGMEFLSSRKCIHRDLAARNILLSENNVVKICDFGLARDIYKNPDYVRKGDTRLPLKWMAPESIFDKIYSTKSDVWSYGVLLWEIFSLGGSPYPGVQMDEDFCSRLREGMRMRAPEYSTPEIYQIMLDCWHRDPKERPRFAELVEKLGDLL", "assay": "Tyrosine kinase assay, phosphorylation of poly(GluTyr) by GST-fusion kinase domain: Flt-1", "assay_type": "biochemical", "settings": "in words"}, "[2]": {"tested_on": "all other tyrosine kinase and serine/threonine kinases tested", "assay": "Kinase assay, all other tyrosine kinase and serine/threonine kinases tested", "assay_type": "biochemical", "settings": "in words"}, "c-Kit": {"target": "T2, c-Kit (Homo sapiens, UniProt P10721)", "T2 construct": "expressed in transfected cells; host or cells: Chinese hamster ovary cells", "T2 sequence (P10721 26-976)": "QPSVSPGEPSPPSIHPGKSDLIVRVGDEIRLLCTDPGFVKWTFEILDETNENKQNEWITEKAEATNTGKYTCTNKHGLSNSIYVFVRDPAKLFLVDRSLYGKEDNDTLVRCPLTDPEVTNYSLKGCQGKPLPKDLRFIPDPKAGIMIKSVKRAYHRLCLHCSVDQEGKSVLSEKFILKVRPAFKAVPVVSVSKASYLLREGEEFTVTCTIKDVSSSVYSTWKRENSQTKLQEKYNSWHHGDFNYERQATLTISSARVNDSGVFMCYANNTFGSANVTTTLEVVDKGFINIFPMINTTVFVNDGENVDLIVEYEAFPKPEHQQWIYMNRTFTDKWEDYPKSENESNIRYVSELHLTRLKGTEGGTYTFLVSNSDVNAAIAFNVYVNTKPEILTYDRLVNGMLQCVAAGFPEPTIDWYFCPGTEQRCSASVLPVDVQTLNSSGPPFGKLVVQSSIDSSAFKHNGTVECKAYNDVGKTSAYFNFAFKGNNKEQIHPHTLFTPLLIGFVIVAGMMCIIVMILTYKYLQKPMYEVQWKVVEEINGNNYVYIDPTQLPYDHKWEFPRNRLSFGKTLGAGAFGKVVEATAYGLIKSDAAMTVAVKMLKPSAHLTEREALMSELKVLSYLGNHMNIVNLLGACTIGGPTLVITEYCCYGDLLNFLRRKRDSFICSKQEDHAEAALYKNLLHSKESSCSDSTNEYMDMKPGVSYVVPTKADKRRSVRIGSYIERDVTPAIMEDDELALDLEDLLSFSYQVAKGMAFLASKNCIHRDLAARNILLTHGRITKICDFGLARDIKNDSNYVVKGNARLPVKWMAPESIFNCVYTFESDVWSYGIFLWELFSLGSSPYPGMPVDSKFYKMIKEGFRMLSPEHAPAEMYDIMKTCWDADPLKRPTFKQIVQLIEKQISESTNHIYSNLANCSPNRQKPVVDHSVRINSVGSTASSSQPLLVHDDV", "assay_type": "cell-based", "settings": "transfected Chinese hamster ovary cells", "procedure": "as §1"}, "c-erbB2": {"tested_on": "c-erbB2", "assay": "Cellular autophosphorylation assay, transfected Chinese hamster ovary cells: c-erbB2", "assay_type": "cell-based", "procedure": "as §1"}, "insulin receptor": {"tested_on": "insulin receptor", "assay": "Cellular autophosphorylation assay, transfected Chinese hamster ovary cells: insulin receptor", "assay_type": "cell-based"}, "[3]": {"tested_on": "retinal vascular development", "assay": "Retinal vascular development in neonatal mice", "assay_type": "in vivo, mouse (C57/BL6J)", "description": "Litters of newborn C57/BL6J mice are divided into treatment and control groups which received daily subcutaneous injections of 10 mg/kg of drug or vehicle, respectively. […] The eyes are removed and fixed for 1 hour in 10% phosphate-buffered formalin. The cornea and lens are removed and the entire retina is carefully dissected from the eyecup, radially cut from the edge of the retina to the equator in all 4 quadrants, and flat-mounted in Aquamount with photoreceptors facing upward."}, "[4]": {"tested_on": "choroidal neovascularization", "assay": "Laser-induced choroidal neovascularization in mice", "settings": "50 mg/kg/day by gavage", "description": "Choroidal neovascularization is generated by modification of a previously described technique. […] Three burns of krypton laser photocoagulation (100pm spot size, 0.1 seconds duration, 150 mW) are delivered to each retina using the slit lamp delivery system of a Coherent Model 920 Photocoagulator and a hand held cover slide as a contact lens. Burns are performed in the 9, 12, and 3 o'clock positions of the posterior pole of the retina. Production of a bubble at the time of laser, which indicates rupture of Bruch's membrane, is an important factor in obtaining CNV ^16, so only mice in which a bubble is produced for all three burns are included in the study. Ten mice are randomly assigned to treatment with vehicle alone and 10 mice received vehicle containing 120 μmoles/kg/day of one of the test drugs given orally by gavage. After 14 days, the mice are killed with an overdose of pentobarbital sodium, and their eyes are rapidly removed and frozen in optimal cutting temperature embedding compound (OCT).\nAfter a 10 minute wash in 0.05 M Tris buffer, pH 7.6, slides are developed in Histomark Red (Kirkegaard and Perry) to give a red reaction product, and mounted with Cytoseal (Stephens Scientific, Riverdale, N.J.). Some slides are counterstained with Contrast Blue (Kirkegaard and Perry).\nFor each lesion, area measurements are made for all sections on which some of the lesion appeared and added together to give the integrated area measurement. Values are averaged to give one experimental value per mouse. A 2-sample t-test for unequal variances is performed to compare the log mean integrated area between treatment and control mice."}, "RTKs": {"tested_on": "RTKs", "settings": "in words; cited from earlier work"}, "[5]": {"tested_on": "retinal neovascularization", "settings": "pigs; cited from earlier work"}, "retinal blood vessels": {"tested_on": "retinal blood vessels", "settings": "administration of exogenous VEGF; cited from earlier work"}}}
{"compound": "Cc1ccc(NC(=O)c2ccccc2)cc1Nc1nccc(-c2cccnc2)n1", "note": "[CGP 53 716]", "values": [{"measurement": "inhibition of autophosphorylation of VEGF receptors", "setting": "VEGF receptors", "value": "poor inhibitors"}, {"measurement": "inhibition of autophosphorylation of PDGF receptors", "setting": "PDGF receptors", "value": "potent inhibitors"}, {"measurement": "inhibition of other RTKs including VEGF receptors", "setting": "[1]", "value": "little or no inhibitory activity"}]}
{"compound": "Clc1ccc(Nc2nnc(Cc3ccncc3)c3ccccc23)cc1", "note": "[CGP 79787D]", "values": [{"measurement": "inhibition of phosphorylation by the kinase domain of human VEGF receptor 1", "setting": "Flt-1", "value": "good inhibitor"}, {"measurement": "inhibition of phosphorylation by all other kinases tested", "setting": "[2]", "value": "poor inhibitor"}, {"measurement": "inhibition of autophosphorylation of VEGF receptors", "setting": "VEGF receptors", "value": "inhibits autophosphorylation"}, {"measurement": "inhibition of autophosphorylation of PDGF receptors", "setting": "PDGF receptors", "value": "inhibits autophosphorylation"}, {"measurement": "inhibition of autophosphorylation of c-Kit", "setting": "c-Kit", "value": "inhibits autophosphorylation"}, {"measurement": "inhibition of autophosphorylation of c-erbB2", "setting": "c-erbB2", "value": "poor inhibitor"}, {"measurement": "inhibition of autophosphorylation of insulin receptor", "setting": "insulin receptor", "value": "poor inhibitor"}, {"measurement": "extent of retinal vessels at P7", "setting": "[3]; 10 mg/kg daily s.c. from P0, P7", "value": "only extended about half way to the periphery"}, {"measurement": "extent of superficial capillary bed at P10", "setting": "[3]; 10 mg/kg daily s.c. from P0, P10", "value": "has not yet reached the edge of the retina"}, {"measurement": "significance of differences in retinal vascular development versus vehicle", "setting": "[3]; 10 mg/kg daily s.c., P7 and P10, FIG. 5", "value": "highly significant"}, {"measurement": "appearance of overlying retinal vessels", "setting": "[4]; two weeks after laser", "value": "appeared normal"}, {"measurement": "choroidal neovascularization at laser-induced rupture sites of Bruch's membrane", "setting": "[4]; two weeks after laser", "value": "very little if any choroidal neovascularization"}, {"measurement": "integrated area of lectin staining per lesion", "setting": "[4]; n=5, vehicle 0.0713812±0.0066723 mm^2", "value": "0.01124±0.001483", "unit": "mm^2"}]}
{"compound": "O=c1c(-c2ccc(O)cc2)coc2cc(O)cc(O)c12", "note": "[Genistein, 4',5,7-trihydroxyisoflavone]", "values": [{"measurement": "inhibition of RTKs", "setting": "RTKs", "value": "relatively weak, nonspecific inhibitor"}]}
{"compound": "CN(C)C[C@@H]1CCn2cc(c3ccccc32)C2=C(C(=O)NC2=O)c2cn(c3ccccc23)CCO1", "note": "[LY 333531]", "values": [{"measurement": "inhibition of retinal neovascularization after laser-induced branch vein occlusion", "setting": "[5]", "value": "partially inhibited retinal neovascularization"}]}
{"compound": "VEGF", "values": [{"measurement": "hyperoxia-induced regression of retinal blood vessels", "setting": "retinal blood vessels", "value": "prevented"}]}
